Data on two molecules can be found in patent US7244765B2, “Guanylhydrazone salts, compositions, processes of making and methods of using” (Cytokine Pharmasciences, Inc, priority 2004, dated 2007).

This data set can be described thus: Solubility test of Semapimod salts (sonication at room temperature, filtration, HPLC against a Semapimod-4 HCl/4 H2O standard). The class given is physicochemical. The conditions noted are these: for Solubility in H2O: sonicated at room temperature, Nylon syringe filter, HPLC vs standard from Semapimod-4 HCl/4 H2O. The procedure: The product isolated as Semapimod-2 HCl/4 H2O was added to ca. 2 mL of solvents (H2O, 5% Dextrose solution, PBS, and 0.9% NaCl solution), and was sonicated at room temperature until the solid suspended in the solution. The mixture was passed through a Nylon syringe filter, and then 0.5 mL of the filtrate was diluted with MeOH before injection into the HPLC. […] For reference purpose, the solubility of Semapimod-4 HCl/4 H2O was determined according to the previous procedure.
The Semapimod salts mentioned in the above table were subjected to solubility tests using the same procedure outlined above.

Counter-ions that a name gives are not always drawn.

Turning to `CC(=NNC(=N)N)c1cc(NC(=O)CCCCCCCCC(=O)Nc2cc(C(C)=NNC(=N)N)cc(C(C)=NNC(=N)N)c2)cc(C(C)=NNC(=N)N)c1.Cl.Cl.O.O.O.O` [Semapimod-2 HCl/4 H2O], the “Solubility in H2O” value is reported as “ca. 9.54 mg/mL”. Further, where the note is “5% Dextrose solution, room temperature, HPLC vs standard”, the “Solubility in 5% Dextrose” value is listed as 13.44 mg/mL. Consider `C/C(=N\NC(=N)N)c1cc(NC(=O)CCCCCCCCC(=O)Nc2cc(/C(C)=N/NC(=N)N)cc(/C(C)=N/NC(=N)N)c2)cc(/C(C)=N/NC(=N)N)c1` [Semapimod-4 HCl/4 H2O, reference compound], for which the “Solubility in H2O” value is given as 14.15 mg/mL.
